The values that follow come from PubChem BioAssay AID1996.

By solubility (kinetic) is commonly meant the concentration staying in solution when a stock, usually in DMSO, is diluted into the medium.

≈ marks a conversion by molar mass, not a printed value. Where only a bound is given, the exact number is not on record here.

The conditions of the series: buffer; pH 7.4; 200.0 µM.
As to `N/C(=N\OC(=O)C1CCCCC1)c1cccc(Br)c1`, the solubility (kinetic) came out at 3.5 µg/mL (≈ 10.8 µM). Consider `O=S(=O)(CCN1CCOCC1)c1ccccc1`, for which the kinetic solubility is above 38.3 µg/mL. As to `CCC(=NCC1CCCO1)c1c(O)n(-c2ccccc2C)c(=O)[nH]c1=O` (stereo not drawn), the kinetic solubility was above 53.6 µg/mL.

Regarding `Cc1cccc(C(=O)NCC(=O)N2CC(=O)Nc3ccccc32)c1`, the kinetic solubility is above 48.5 µg/mL. `CCN(C(=S)NC(=O)c1ccco1)c1cccc2ccccc12` yielded a kinetic solubility of 46.5 µg/mL (≈ 143 µM). Under `CCCC(C)NC(=O)C1c2ccccc2Oc2ccccc21` (stereo not drawn) stands 1.2 µg/mL (≈ 4.06 µM). The value for `COC(=O)c1cccc(Cn2cc([N+](=O)[O-])cn2)c1` was above 39.2 µg/mL; that for `CCOC(=O)Cn1c2ccccc2c2nc(C)sc21` was above 41.2 µg/mL; that for `CCCSc1ncnc2sc(C)c(C)c12` was 0.5 µg/mL (≈ 2.1 µM). Under `Cc1cc(NC(=O)/C=C/c2ccccc2)c(C(C)C)cc1O` stands 5.4 µg/mL (≈ 18.3 µM); under `C/C(N)=C(/C#N)C(=O)COC(=O)c1ccccc1Cc1ccccc1`, 22.3 µg/mL (≈ 66.7 µM); under `CC(=O)Nc1ccc(C(=O)O)cc1`, above 26.9 µg/mL. `O=C(O)CNC(=S)N(Cc1ccccc1)Cc1cccs1` gave a kinetic solubility above 48.1 µg/mL. The value for `Cc1ccc(S(=O)(=O)N(C)C)cc1NC(=O)c1cc(-c2ccncc2)nc2ccccc12` was 10 µg/mL (≈ 22.4 µM). The value for `CC1(C)CC(=O)N(c2ccc(Cl)c(Cl)c2)C(=O)C1` was 9.6 µg/mL (≈ 33.5 µM); that for `COCCNC(=O)c1cccc2c1-c1ccccc1C2=O` was above 42.2 µg/mL; that for `CSc1ncccc1C(=O)OC(C)C(=O)Nc1cccc(S(=O)(=O)N2CCOCC2)c1` (stereo not drawn) was 8.4 µg/mL (≈ 18 µM). Under `CSc1cccc(NC(=O)CC(C)n2ccnc2)c1` (stereo not drawn) stands above 41.3 µg/mL.

With `Cc1cc(C(=O)OCC(=O)NC2(C#N)CCCCC2)c(C)o1`, the kinetic solubility was above 45.7 µg/mL.

`CNC(=O)c1[nH]cnc1C(=O)Nc1ccccn1` displayed a solubility (kinetic) above 36.8 µg/mL. The value for `O=C(Nc1ccc([N+](=O)[O-])cc1)OCCc1ccccn1` was 0.6 µg/mL (≈ 2.09 µM); that for `CCOc1ccc(/C=N/N2C(C)CCCC2C)cc1OC` (stereo not drawn) was above 43.6 µg/mL; that for `CCOC(=O)c1sc(=S)n(C)c1NC(=O)c1ccc(C(C)(C)C)cc1` was 3.4 µg/mL (≈ 8.98 µM).

In the case of `CSc1nc(NS(=O)(=O)c2ccc(F)cc2F)nn1C`, the solubility (kinetic) is above 48 µg/mL. Molecule `O=C(COC(=O)CN1CCSC1=O)Nc1ccc(F)cc1Cl` registered a solubility (kinetic) above 52 µg/mL.

On to `O=C(c1cc2cc(Cl)ccc2o1)N1CCCC1`, for which the kinetic solubility came to 29.6 µg/mL (≈ 119 µM). Under `O=C(NCc1csc(-c2cccs2)n1)C1CCCCC1` stands 3.9 µg/mL (≈ 12.7 µM); under `O=C(NCCN1CCOCC1)c1ccc(Cl)c([N+](=O)[O-])c1`, 41.4 µg/mL (≈ 132 µM); under `CC1CN(CC(O)COC2CCC(C(C)(C)C)CC2)CC(C)O1.Cl` (stereo not drawn), 48.8 µg/mL. Under `CC1CCCCC1NC(=O)COC(=O)c1cccn1C` (stereo not drawn) stands above 41.8 µg/mL. The value for `CC(NC(=O)CC1CCCCC1)c1ccccc1` (stereo not drawn) was above 36.8 µg/mL; that for `O=C(Nc1ccccc1Cl)Nc1cccc2cccnc12` was below 0.2 µg/mL. For the molecule `Cc1ccc(SCC(=O)N(C)C2CCS(=O)(=O)C2)c(C)c1` (stereo not drawn), the kinetic solubility is above 49.1 µg/mL. The value for `N#Cc1ccc(Cn2c(-c3ccc(F)cc3)noc2=O)cc1` was 37.6 µg/mL (≈ 127 µM); that for `CN(Cc1ccccc1)/C(=N/O)c1cccc(Cl)c1` was 26.4 µg/mL (≈ 96.1 µM); that for `O=C(COC(=O)c1ccco1)Nc1ccc(Cl)cn1` was 24.8 µg/mL (≈ 88.4 µM). Under `Cc1nc2ccc(-c3nc4ccc(N)cc4[nH]3)cc2[nH]1` stands 39.4 µg/mL (≈ 150 µM); under `O=C(NC(=O)c1ccccc1O)c1ccc(C(F)(F)F)cc1`, 2.3 µg/mL (≈ 7.44 µM); under `CC1CN(c2ccc(Cl)cc2)c2nc3c(c(=O)[nH]c(=O)n3C)n2C1` (stereo not drawn), 1.2 µg/mL (≈ 3.47 µM). `Cc1ccc(CNC(=O)c2ccc[nH]2)cc1`: the solubility (kinetic) is above 32.1 µg/mL.

The molecule `CC1CCC(NC(=O)c2cc(Cl)nc3ccccc23)CC1` (stereo not drawn) displayed a kinetic solubility of 2.5 µg/mL (≈ 8.26 µM). Under `CN=C1S/C(=C/c2cn(CC(=O)OC)c3ccccc23)C(=O)N1C` stands 4.1 µg/mL (≈ 11.9 µM).

The molecule `CS(=O)(=O)c1ccc(NCCN2CCOCC2)c([N+](=O)[O-])c1` returned a kinetic solubility of 44.4 µg/mL (≈ 135 µM). Under `Cc1ccc(CC2C(=O)N(c3ccc(F)cc3)C(=O)C2C)cc1` (stereo not drawn) stands 3.3 µg/mL (≈ 10.6 µM). In turn, `O=C(c1ccccc1)C(O)C(c1ccccc1)N1CCOCC1` (stereo not drawn) returned a solubility (kinetic) above 46.7 µg/mL.

In turn, `Cc1ccc(C(=O)NCC(=O)OCC(=O)NC2CCCCCCC2)cc1` showed a solubility (kinetic) of 53.2 µg/mL (≈ 148 µM). Under `Cc1cc(NC(=O)c2ccccc2)ccc1NC(=O)Cc1ccccc1` stands 0.8 µg/mL (≈ 2.32 µM); under `COc1cc2c(cc1OC)C(C)N(C(=O)Nc1ccccc1)CC2` (stereo not drawn), 39 µg/mL (≈ 119 µM); under `Br.Fc1cccc(CNCC2CCCO2)c1` (stereo not drawn), 42.2 µg/mL. The value for `Cc1ccc(S(=O)(=O)NCc2ccccc2)cc1` was 25.9 µg/mL (≈ 99.1 µM); that for `O=C(NC1CC2CCCC(C1)N2C(=O)Nc1ccccc1)C1CC1` (stereo not drawn) was 4.2 µg/mL (≈ 12.8 µM); that for `CCCCSCCCNC(=O)Nc1ccc(C)c(C)c1` was 1.1 µg/mL (≈ 3.74 µM). Molecule `O=C(Cn1c(=O)n(CC2CS2)c2ccccc21)N1CCCCCC1` (stereo not drawn) came in with a kinetic solubility of 44.3 µg/mL (≈ 128 µM). Under `S=C(Nc1ccccc1)Nc1ccccc1Br` stands 16.4 µg/mL (≈ 53.4 µM); under `CCOC(=O)N1CCN(c2nc3ccccn3c(=O)c2C=O)CC1`, above 49.6 µg/mL. Under `O=C(CSc1ccc(Cl)cc1)NCc1ccncc1` stands above 43.9 µg/mL; under `Cc1ccc(NC(=S)N2CCc3[nH]c4ccccc4c3C2)cc1`, 0.8 µg/mL (≈ 2.49 µM). Under `COc1cc(OC)cc(C(=O)NCC(=O)OCC(=O)NC2CCCc3ccccc32)c1` (stereo not drawn) stands 58.5 µg/mL (≈ 137 µM); under `Cc1cc(C)cc(NS(=O)(=O)c2c(C)[nH]c(=O)[nH]c2=O)c1`, above 46.4 µg/mL; under `CCCC(=O)Nc1ccc(C(=O)COC(=O)C2CC2C)cc1` (stereo not drawn), 14 µg/mL (≈ 46.2 µM).

`Cc1ccc(Br)c(NS(=O)(=O)c2cccc(C(=O)N3CCNC(=O)C3)c2)c1` displayed a kinetic solubility above 67.8 µg/mL. Under `C=C(C)C(=O)Nc1cccnc1Oc1ccc(F)cc1F` stands 40.8 µg/mL (≈ 141 µM); under `CCCNCC(=O)Nc1cccc(S(=O)(=O)NC2=NCCCCC2)c1.O=C(O)C(=O)O`, above 68.5 µg/mL. Under `O=C(Nc1ccc2ccccc2n1)c1ccccc1Br` stands 4.6 µg/mL (≈ 14.1 µM); under `CC1(C)CC(=O)c2ccc(OCc3ccc([N+](=O)[O-])cc3)cc2O1`, below 0.7 µg/mL. Under `CCOC(=O)Cn1c(=O)n(Cc2ccccc2)c(=O)c2cccnc21` stands 7.6 µg/mL (≈ 22.4 µM); under `N#CCC(=O)Nc1ccc(C(=O)OCC(=O)NC2CCCc3ccccc32)cc1` (stereo not drawn), 7.5 µg/mL (≈ 19.2 µM).

In the case of `COC(=O)C(Cc1c[nH]c2ccccc12)N1CCS(=O)(=O)CC1` (stereo not drawn), the solubility (kinetic) was above 50.5 µg/mL.

The molecule `O=C(c1cccc([N+](=O)[O-])c1)N1CCN(c2ncccn2)CC1` showed a solubility (kinetic) above 47 µg/mL. The value for `CC(=O)c1ccc(OCCCC(=O)NCCc2ccccc2)cc1` was 38.8 µg/mL (≈ 119 µM); that for `COc1ccc(C(=O)C2CCN(CC(=O)Nc3ccccc3F)CC2)cc1` was 4.5 µg/mL (≈ 12.1 µM); that for `O=C(c1cc2ccccc2cc1O)N1CCN(c2ccccn2)CC1` was 32.9 µg/mL (≈ 98.7 µM).

As to `CC1CC(=O)N(c2ccc(C(C)C)cc2)C(=O)C1`, the kinetic solubility came out at 35 µg/mL (≈ 143 µM). Turning to `Cc1cc(C)cc(Oc2coc3c(CN(C)C)c(O)ccc3c2=O)c1`, the solubility (kinetic) is above 50.9 µg/mL. The molecule `CCC(NC(=S)NCc1ccc(F)cc1)c1ccccc1` (stereo not drawn) registered a kinetic solubility of 3.4 µg/mL (≈ 11.2 µM).

`Cc1cc(Cl)ccc1NC(=S)NCc1ccc(F)cc1` came in with a kinetic solubility of 2.8 µg/mL (≈ 9.07 µM). Under `CCOc1ccc2[nH]c3c(=O)n(CCC4=CCCCC4)cnc3c2c1` stands 10.7 µg/mL (≈ 31.7 µM); under `O=C(CC1SCCNC1=O)Nc1ccc(Cl)cc1` (stereo not drawn), above 42.7 µg/mL; under `CCOC(=O)Cc1csc(NC(=O)Cc2ccccc2)n1`, above 45.7 µg/mL.

`CN(c1ccccc1)S(=O)(=O)c1cccc(C(=O)OCC(=O)Nc2ccc(C(N)=O)cc2)c1` registered a kinetic solubility of 9.9 µg/mL (≈ 21.2 µM). Under `COc1ccccc1/C=[N+](\[O-])C1SC(=S)N(C)C1(C)C` (stereo not drawn) stands above 46.6 µg/mL; under `O=C(Nc1ccc2c(c1)CCC2)c1cc(F)cc(F)c1`, 3.7 µg/mL (≈ 13.5 µM); under `N#Cc1ccc(Oc2cnccn2)cc1`, above 29.6 µg/mL.

For the molecule `O=C(Nc1nc2ccsc2c(=O)s1)c1ccc(F)cc1Cl`, the kinetic solubility is below 0.4 µg/mL. The value for `Cc1cc(C)cc(NC(=O)N(CCC#N)Cc2cccs2)c1` was 4.8 µg/mL (≈ 15.3 µM); that for `Cc1ccc(Nc2cc(C)nc3c(C)cccc23)cc1` was 35 µg/mL (≈ 133 µM). The value for `CC(=O)N1CCN(Cc2nc(-c3cccc(Cl)c3)no2)CC1` was above 48.1 µg/mL; that for `N#Cc1ccccc1CN1C(=O)NC2(CCCCCC2)C1=O` was above 44.6 µg/mL. The molecule `OCCN1CCOCCOc2ccccc2OCCOCC1` had a kinetic solubility above 46.7 µg/mL. The value for `CC(=O)N[C@@H](Cc1c[nH]c2ccccc12)C(=O)NC1CC1` was above 42.8 µg/mL; that for `O=c1cc(Cl)[nH]c(=O)n1Cc1ccc(F)cc1` was 34.9 µg/mL (≈ 137 µM); that for `NS(=O)(=O)c1ccc(CNS(=O)(=O)c2cccc3nonc23)cc1` was 54.4 µg/mL (≈ 148 µM). Molecule `COc1ccc(C(C)NC(=O)CCc2ccccc2)cc1` (stereo not drawn) returned a kinetic solubility of 40.8 µg/mL (≈ 144 µM). In turn, `CN1CCN(c2ccccc2NC(=O)c2c(F)cccc2F)CC1` returned a solubility (kinetic) above 49.7 µg/mL. The value for `Cc1cc(C)cc(OCC(=O)OCc2cc([N+](=O)[O-])cc3c2OCOC3)c1` was 3.9 µg/mL (≈ 10.4 µM); that for `COC(=O)c1ccc(CNC(=O)COC(=O)/C=C/c2ccc(O)c(OC)c2)cc1` was 13.4 µg/mL (≈ 33.6 µM); that for `CCCOc1ccc(NC(=O)CCC(=O)NC(C)c2ccccc2)cc1` (stereo not drawn) was 0.5 µg/mL (≈ 1.41 µM).

Regarding `O=C(O)c1ccccc1C(=O)NC1Cc2ccccc2C1`, the kinetic solubility came to 42.1 µg/mL (≈ 150 µM).

Molecule `CCc1noc(C)c1C(=O)OCC(=O)NCc1ccccc1` had a kinetic solubility above 45.3 µg/mL. The value for `CC(Oc1ccccc1)C(=O)NC1CCSc2ccccc21` (stereo not drawn) was 25.9 µg/mL (≈ 82.6 µM); that for `CCOC(=O)CSc1nc2cc(C(F)(F)F)cnc2n1C` was 44.9 µg/mL (≈ 141 µM). Under `COc1ccc(/C=C/C(=O)N2CCN(S(=O)(=O)c3ccccc3Br)CC2)cc1OC` stands 13.6 µg/mL (≈ 27.5 µM).

In turn, `NCC1(CC(=O)O)CCCCC1` came in with a kinetic solubility above 25.7 µg/mL.
